From publication PMC9569578, “In Planta, In Vitro and In Silico Studies of Chiral N^6-Benzyladenine Derivatives: Discovery of Receptor-Specific S-Enantiomers with Cytokinin or Anticytokinin Activities” (International Journal of Molecular Sciences, 2022) come the findings set out here.

Experiment in all cases: radioligand competition with 3H-isopentenyladenine, plant microsomes
Common to all, as to assay type: binding
Conditions in all cases: 1 µM compound vs 3H-iP (2 pmol per sample), membranes of N. benthamiana

Experiment [1] has as its target T1, AHK3 (Arabidopsis thaliana, UniProt Q9C5U1).
T1 construct: receptor fused with GFP, transiently expressed in Nicotiana benthamiana leaves; microsomal membranes
T1 sequence (Q9C5U1 1-1036): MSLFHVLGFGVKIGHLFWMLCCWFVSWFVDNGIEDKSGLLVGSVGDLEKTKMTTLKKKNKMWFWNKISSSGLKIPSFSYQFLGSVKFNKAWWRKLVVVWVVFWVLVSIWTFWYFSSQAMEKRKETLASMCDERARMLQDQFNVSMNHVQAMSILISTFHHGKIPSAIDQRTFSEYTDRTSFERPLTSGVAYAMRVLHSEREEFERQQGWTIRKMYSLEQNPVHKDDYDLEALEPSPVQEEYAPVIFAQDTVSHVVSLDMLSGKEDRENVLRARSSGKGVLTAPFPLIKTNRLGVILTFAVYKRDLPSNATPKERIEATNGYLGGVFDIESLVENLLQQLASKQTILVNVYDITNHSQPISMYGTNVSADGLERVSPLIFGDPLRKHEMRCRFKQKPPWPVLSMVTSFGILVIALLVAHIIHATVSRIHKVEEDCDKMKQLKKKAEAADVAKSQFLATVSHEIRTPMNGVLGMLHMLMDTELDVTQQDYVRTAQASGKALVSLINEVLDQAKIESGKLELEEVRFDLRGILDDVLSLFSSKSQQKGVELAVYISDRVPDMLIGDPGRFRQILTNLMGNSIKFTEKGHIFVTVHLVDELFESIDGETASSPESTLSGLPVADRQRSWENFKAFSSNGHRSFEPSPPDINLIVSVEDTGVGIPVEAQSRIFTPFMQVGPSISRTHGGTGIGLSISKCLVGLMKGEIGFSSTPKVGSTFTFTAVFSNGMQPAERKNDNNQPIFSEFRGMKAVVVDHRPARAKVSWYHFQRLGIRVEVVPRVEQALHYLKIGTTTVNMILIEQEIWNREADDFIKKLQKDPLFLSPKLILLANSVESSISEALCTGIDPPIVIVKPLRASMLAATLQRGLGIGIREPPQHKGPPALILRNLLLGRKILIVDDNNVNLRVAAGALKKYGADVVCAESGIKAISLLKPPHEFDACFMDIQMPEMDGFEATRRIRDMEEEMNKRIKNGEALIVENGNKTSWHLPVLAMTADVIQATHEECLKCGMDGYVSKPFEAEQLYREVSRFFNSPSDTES
From the text:
radioligand competition with 3H-isopentenyladenine, plant microsomes on AHK3

Experiment [2] concerns the target T2, AHK2 (Arabidopsis thaliana, UniProt Q9C5U2).
T2 construct: receptor fused with GFP, transiently expressed in Nicotiana benthamiana leaves; microsomal membranes
T2 sequence (Q9C5U2 1-1176): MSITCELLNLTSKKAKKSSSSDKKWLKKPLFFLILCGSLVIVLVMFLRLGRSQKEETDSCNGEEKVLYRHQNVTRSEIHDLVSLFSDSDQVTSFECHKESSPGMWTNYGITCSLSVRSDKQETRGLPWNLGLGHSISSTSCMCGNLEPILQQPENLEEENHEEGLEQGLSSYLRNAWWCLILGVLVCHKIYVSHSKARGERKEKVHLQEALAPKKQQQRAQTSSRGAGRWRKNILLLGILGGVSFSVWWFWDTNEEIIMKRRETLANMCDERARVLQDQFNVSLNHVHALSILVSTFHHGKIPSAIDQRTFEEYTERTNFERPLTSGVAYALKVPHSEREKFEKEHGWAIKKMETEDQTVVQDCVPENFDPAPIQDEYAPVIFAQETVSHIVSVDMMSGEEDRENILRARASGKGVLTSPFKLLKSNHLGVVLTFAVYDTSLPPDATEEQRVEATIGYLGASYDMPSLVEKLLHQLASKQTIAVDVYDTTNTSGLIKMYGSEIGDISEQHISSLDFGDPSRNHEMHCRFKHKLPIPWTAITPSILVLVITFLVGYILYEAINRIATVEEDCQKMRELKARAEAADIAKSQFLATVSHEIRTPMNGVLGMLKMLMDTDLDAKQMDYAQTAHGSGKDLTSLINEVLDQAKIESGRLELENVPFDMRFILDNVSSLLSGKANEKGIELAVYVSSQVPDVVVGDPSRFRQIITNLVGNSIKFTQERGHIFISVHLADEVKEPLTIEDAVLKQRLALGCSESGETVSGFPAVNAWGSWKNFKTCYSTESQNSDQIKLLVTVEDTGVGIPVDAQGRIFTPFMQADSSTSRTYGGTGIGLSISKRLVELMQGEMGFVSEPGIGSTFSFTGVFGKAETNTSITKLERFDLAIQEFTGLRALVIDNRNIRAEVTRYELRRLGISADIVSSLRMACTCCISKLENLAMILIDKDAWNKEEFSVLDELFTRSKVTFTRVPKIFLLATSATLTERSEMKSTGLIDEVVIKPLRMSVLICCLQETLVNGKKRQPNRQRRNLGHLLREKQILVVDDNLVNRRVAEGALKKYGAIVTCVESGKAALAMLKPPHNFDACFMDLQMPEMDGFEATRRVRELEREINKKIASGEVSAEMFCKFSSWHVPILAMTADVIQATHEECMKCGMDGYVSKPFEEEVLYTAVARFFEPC
An excerpt:
radioligand competition with 3H-isopentenyladenine, plant microsomes on AHK2

Experiment [3] concerns the target T3, CRE1/AHK4 (Arabidopsis thaliana, UniProt Q9C5U0).
T3 construct: receptor fused with GFP, transiently expressed in Nicotiana benthamiana leaves; microsomal membranes
From the text:
radioligand competition with 3H-isopentenyladenine, plant microsomes on CRE1/AHK4

T3 sequence (Q9C5U0 whole entry, the tested form may be a part): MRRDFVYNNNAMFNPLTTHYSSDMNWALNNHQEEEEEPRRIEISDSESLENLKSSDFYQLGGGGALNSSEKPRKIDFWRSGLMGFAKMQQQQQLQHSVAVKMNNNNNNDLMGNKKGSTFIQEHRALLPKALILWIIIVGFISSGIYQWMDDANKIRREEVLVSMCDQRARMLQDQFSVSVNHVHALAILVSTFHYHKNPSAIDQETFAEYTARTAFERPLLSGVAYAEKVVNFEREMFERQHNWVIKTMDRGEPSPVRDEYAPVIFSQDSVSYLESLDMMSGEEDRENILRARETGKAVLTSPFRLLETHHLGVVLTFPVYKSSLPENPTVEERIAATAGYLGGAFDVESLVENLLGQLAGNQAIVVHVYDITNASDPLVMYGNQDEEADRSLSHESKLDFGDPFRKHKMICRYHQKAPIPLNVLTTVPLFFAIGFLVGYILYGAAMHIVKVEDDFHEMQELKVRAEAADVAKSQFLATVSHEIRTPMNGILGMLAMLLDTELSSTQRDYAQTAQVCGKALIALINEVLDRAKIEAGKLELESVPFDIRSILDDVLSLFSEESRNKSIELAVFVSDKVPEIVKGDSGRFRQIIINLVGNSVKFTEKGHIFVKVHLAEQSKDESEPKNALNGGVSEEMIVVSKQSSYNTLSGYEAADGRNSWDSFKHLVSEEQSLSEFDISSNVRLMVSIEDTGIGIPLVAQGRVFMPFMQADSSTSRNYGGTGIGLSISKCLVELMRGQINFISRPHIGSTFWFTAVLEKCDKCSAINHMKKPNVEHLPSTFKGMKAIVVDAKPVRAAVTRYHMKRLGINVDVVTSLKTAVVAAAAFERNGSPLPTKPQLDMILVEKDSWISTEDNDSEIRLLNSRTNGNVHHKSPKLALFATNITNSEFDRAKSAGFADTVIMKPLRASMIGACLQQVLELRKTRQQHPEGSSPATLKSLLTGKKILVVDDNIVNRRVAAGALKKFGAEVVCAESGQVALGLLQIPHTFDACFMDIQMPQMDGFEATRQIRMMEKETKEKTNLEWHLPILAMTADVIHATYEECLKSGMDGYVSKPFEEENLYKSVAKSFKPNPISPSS

On to `C[C@H](Nc1ncnc2[nH]cnc12)c1ccccc1` [5b, N^6-((S)-α-methylbenzyl) adenine], for which the “АНК3 / 1 μM” value in experiment [1] came to 46.5 ± 2.2%. The “АНК2 / 1 μM” value in experiment [2] is 8.9 ± 4.9%.
In the case of `C[C@H](Nc1nc(Cl)nc2[nH]cnc12)c1ccccc1` [7b, 2-chloro,N^6-((S)-α-methylbenzyl) adenine], in experiment [1], the “АНК3 / 1 μM” value was 80.6 ± 1.5%. The “АНК2 / 1 μM” value in experiment [2] amounted to 3.1 ± 0.4%. Also, the “CRE1/AHK4 / 1 μM” value in experiment [3] is 37.1 ± 1.2%.
Taken in the same sequence, the figures for `C[C@@H](Nc1ncnc2[nH]cnc12)c1ccccc1` [5a, N^6-((R)-α-methylbenzyl) adenine] were 97.7 ± 1.0%, 88.9 ± 0.5% and 87.7 ± 1.0%.
Consider `C[C@@H](Nc1nc(N)nc2[nH]cnc12)c1ccccc1` [8a, 2-amino,N^6-((R)-α-methylbenzyl) adenine], for which the “АНК3 / 1 μM” value in experiment [1] is recorded as 54.7 ± 1.1%. Moreover, in experiment [2], the “АНК2 / 1 μM” value is reported as 58.8 ± 1.3%. The “CRE1/AHK4 / 1 μM” value in experiment [3] came out at 30.4 ± 1.0%.
In the same order, the values of `C[C@@H](Nc1nc(Cl)nc2[nH]cnc12)c1ccccc1` [7a, 2-chloro,N^6-((R)-α-methylbenzyl) adenine] are 88.9 ± 0.7%, 42.6 ± 0.4% and 74.1 ± 1.6%.
Taken in the same sequence, the figures for `C[C@H](Nc1nc(F)nc2nc[nH]c12)c1ccccc1` [6b, 2-fluoro,N^6-((S)-α-methylbenzyl) adenine] were 74.7 ± 1.7%, 8.7 ± 0.9% and 45.8 ± 0.3%.
Taken in the same sequence, the figures for `C[C@@H](Nc1nc(F)nc2[nH]cnc12)c1ccccc1` [6a, 2-fluoro,N^6-((R)-α-methylbenzyl) adenine] were 99.8 ± 1.5%, 92.1 ± 1.0% and 97.2 ± 0.9%.
